# Where “and” joins values, the source holds several entries; their conditions need not be identical. Equal entries are not always repeated.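 Grown in 96-well plates, cells were treated for 48 hours with each compound at five concentrations. Insufficient inhibition: endpoint recorded as highest concentration tested. Here, GI50 denotes the concentration required for 50% inhibition of growth. At the TGI there is no net growth.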
# Experiments:
# Experiment in all cases: DTP human tumour cell line panel, 48 h
# ACHN renal = system: ACHN renal
# HCC-2998 colon = system: HCC-2998 colon
# HCT-116 colon = system: HCT-116 colon
# HS 578T breast = system: HS 578T breast
# HT29 colon = system: HT29 colon
# NCI-H226 lung = system: NCI-H226 lung
# NCI/ADR-RES ovarian = system: NCI/ADR-RES ovarian
# SNB-75 CNS = system: SNB-75 CNS
# T-47D breast = system: T-47D breast
# U251 CNS = system: U251 CNS
Structure (SMILES),GI50 (ACHN renal),TGI (ACHN renal),GI50 (HCC-2998 colon),TGI (HCC-2998 colon),GI50 (HCT-116 colon),TGI (HCT-116 colon),GI50 (HS 578T breast),TGI (HS 578T breast),GI50 (HT29 colon),TGI (HT29 colon),GI50 (NCI-H226 lung),TGI (NCI-H226 lung),GI50 (NCI/ADR-RES ovarian),TGI (NCI/ADR-RES ovarian),GI50 (SNB-75 CNS),TGI (SNB-75 CNS),GI50 (T-47D breast),TGI (T-47D breast),GI50 (U251 CNS),TGI (U251 CNS)
O=C(Nc1ccc(-c2ccnc(Nc3ccc(N4CCOCC4)cc3)n2)cc1)C1CCCN1 (stereo not drawn),4.27 µM,25.2 µM,11.3 µM,25 µM,1.43 µM,18.5 µM,3 µM,24.8 µM,3.89 µM,23.3 µM,6.69 µM,52.5 µM,9.49 µM,44.5 µM,1.96 µM,12.5 µM,14.7 µM,38.7 µM,3.05 µM,21.6 µM
COc1ccc(S(=O)(=O)n2c3ccccc3n3ncc(-c4nnc(C)o4)c23)cc1,0.567 µM,> 100 µM,1.38 µM,16.8 µM,0.387 µM,24 µM,0.394 µM,> 100 µM,0.381 µM,> 100 µM,10.8 µM,> 69.2 µM,0.391 µM,> 48.1 µM,0.211 µM,0.937 µM,0.584 µM,62.4 µM,0.473 µM,> 65.5 µM
O=C(O)c1ccc2cccnc2c1O,1.7 µM,11.3 µM,2.32 µM,37.5 µM,0.532 µM,25 µM,0.724 µM,> 79.8 µM,2.43 µM,> 79 µM,1.95 µM,> 56 µM,1.33 µM,36.2 µM,1.51 µM,> 100 µM,2.18 µM,9.9 µM,0.672 µM,> 59.4 µM
N#Cc1c(NCc2ccccc2)nc(NCc2ccccc2)c(C#N)c1-c1cccc(O)c1,2.63 µM,11.7 µM,95.5 µM,> 100 µM,4.48 µM,16.1 µM,3.76 µM,20.7 µM,41.3 µM,> 100 µM,2.91 µM,7.86 µM,13.8 µM,48 µM,39.4 µM,> 100 µM,4.03 µM,> 100 µM,4.02 µM,15.4 µM
Cc1ccc(/C=C2\CN(Cc3cn(CCNc4ccnc5cc(Cl)ccc45)nn3)C/C(=C\c3ccc(C)cc3)C2=O)cc1,1.78 µM,3.25 µM,1.92 µM,3.44 µM,1.68 µM,3.27 µM,1.97 µM,5.53 µM,1.91 µM,3.85 µM,2.03 µM,4.8 µM,2.32 µM,5.14 µM,1.61 µM,3.53 µM,2.5 µM,6.53 µM,1.57 µM,3.01 µM
c1ccc(-c2cnc3nc4ccccc4nc3n2)cc1,,15.4 µM,,43.3 µM,,21.9 µM,,33.3 µM,,35.5 µM,,19.7 µM,,39 µM,,22.8 µM,,47 µM,,22.4 µM
Cc1nc2sc(C(=O)Nc3cccc(Cl)c3C)c(N)c2cc1C(C)O (stereo not drawn),0.63 µM,> 50.1 µM,0.532 µM,26.3 µM,0.159 µM,> 35.7 µM,0.182 µM,> 74.9 µM,0.112 µM,13.8 µM,2.21 µM,> 80.8 µM,0.119 µM,> 61.3 µM,0.097 µM,> 42.1 µM,0.443 µM,> 100 µM,0.223 µM,> 39.2 µM
O=[N+]([O-])c1ccc(NC(=S)N/N=C(\c2ccccc2)c2ccccn2)cc1,1.34 µM,2.62 µM and 2.39 µM,2.1 µM,4.26 µM and 2.83 µM,,3.21 µM,,9.39 µM,1.56 µM,3.12 µM and 2.78 µM,,2.98 µM and 3.03 µM,,5.12 µM,,3.76 µM,,3.03 µM,,3 µM and 2.68 µM
COc1cc(N=Nc2cccc(S(N)(=O)=O)c2)c2ccccc2c1N,,30.3 µM,,20.7 µM,,29.2 µM,,> 27.2 µM,,31 µM,,39.7 µM,,> 68.5 µM,,4.56 µM,,> 61.2 µM,,22.5 µM
Cn1c(O)c(N=NC(N)=S)c2ccccc21,51.2 µM,> 100 µM,> 100 µM,> 100 µM,40.9 µM,> 100 µM,23.4 µM,> 100 µM,> 100 µM,> 100 µM,> 100 µM,> 100 µM,47.4 µM,> 100 µM,18.3 µM,98 µM,43.9 µM,> 100 µM,46.7 µM,> 100 µM

# Reference: PubChem BioAssay (NCI)
